Assay results reported in patent publication US20090275626A1, “PHARMACEUTICAL COMPOSITION FOR PREVENTION OR TREATMENT OF NEUROGENIC PAIN” (KISSEI PHARMACEUTICAL CO., LTD., priority 2005, published 2009).
Entries after “also recorded” stand apart in the source; their conditions may differ.

Legend:
Format in all cases: in vivo, rat
[1] = test system: STZ-induced diabetic rats; assay: Nociceptive threshold in STZ-induced diabetic rats, repeated subcutaneous administration over 10 weeks (Test Example 2, Randall-Selitto method); details: for nociceptive threshold after 14-day repeated administration: 0.1, 0.3 and 1 mg/kg subcutaneous once a day, right hind-paw pressure, vs Control group; for neuroprotective effects: concluded from controlled changes of nociceptive threshold over 10 weeks (early hyperalgesia, late hypoalgesia); for changes of the nociceptive threshold over 10 weeks after STZ administration (repeated-measures analysis of variance vs Control group): subcutaneous once a day, measured every 2 weeks until 10th week, P<0.05
Procedure: STZ (50 mg/kg) was administered intravenously to male SD stain rats to induce diabetes mellitus. From the following day of the STZ administration, test article (Compound 1 or 2) was administered subcutaneously once a day, repeatedly. Normal and Control groups were administered subcutaneously physiological saline (9-10 rats in each group). Before the STZ administration and every 2 weeks until the 10th week after STZ administration, the nociceptive threshold against pressure stimulation given to the right hind-paw of rats was measured by Randall-Selitto method, and compared with Control group.
The changes of the nociceptive thresholds (mean±SE) in each group over 10 weeks after administration of each drug are shown in FIG. 2 and FIG. 3.

[2] = test system: Seltzer model rats; assay: Nociceptive threshold in Seltzer model rats (Test Example 3, Randall-Selitto method); details: for nociceptive threshold of the nerve ligation group: 1 hour after final administration; for analgesic effect compared with carbamazepine: Compounds 1, 2: 1 mg/kg s.c., Compound 3 hydrochloride: 10 mg/kg oral, carbamazepine 10 mg/kg oral, 2 weeks
From the text: Fifty-eight, 7-week old male SD rats were anesthetized with pentobarbital (Nembutal injection (a registered trademark)), and the right sciatic nerve was exposed. In the nerve ligation group (48 rats), half of the dorsal portion of the nerve was ligated using 6-0 nylon suture. In Normal group (10 rats), the sciatic nerve was only exposed. From the following day of the model preparation, each test article (Compound 1, Compound 2 or Compound 3 hydrochloride) was repeatedly administered once a day for 2 weeks. Compound 1 (10 rats) and Compound 2 (10 rats) were administered subcutaneously, and Compound 3 hydrochloride (9 rats) and carbamazepine (10 rats) were administered orally. Control group (9 rats) and Normal group were subcutaneously administered physiological saline. One hour after the final administration of the test articles, the nociceptive threshold against pressure stimulation given to the right hind-paw of rats was measured by Randall-Selitto method, and compared with Control group.

[3] = test system: STZ-induced diabetic rats; assay: Nociceptive threshold in STZ-induced diabetic rats, repeated oral administration (Test Example 1, Randall-Selitto method); details: Compound 3 hydrochloride 10 mg/kg oral twice a day, 14-day repeated administration, 1 hour after final administration, right hind-paw pressure, vs Control group
Procedure: STZ (50 mg/kg) was administered intravenously to 7-week old male SD stain rats to induce diabetes mellitus. From the following day of the STZ administration, test article (Compound 3 hydrochloride) was administered orally twice a day, repeatedly (10 rats in each group). Normal and Control groups were administered the medium (0.5% methylcellulose). The nociceptive threshold against pressure stimulation given to the right hind-paw of rats after 2 weeks administration (1 hour after the final administration) of test article was measured by Randall-Selitto method, and compared with Control group.

[4] = 1 mg/kg subcutaneous once a day for 2 weeks
[5] = 10 mg/kg oral once a day for 2 weeks

| Structure (SMILES) | nociceptive threshold after 14-day repeated administration [1] | neuroprotective effects [1] | changes of the nociceptive threshold over 10 weeks after STZ administration (repeated-measures analysis of variance vs Control group) ([1]; disodium salt) | nociceptive threshold of the nerve ligation group [2, 4] | analgesic effect compared with carbamazepine [2] | nociceptive threshold of the nerve ligation group [2, 5] | nociceptive threshold [3] | changes of the nociceptive threshold over 10 weeks after STZ administration (repeated-measures analysis of variance vs Control group) ([1]; sodium salt) |
| --- | --- | --- | --- | --- | --- | --- | --- | --- |
| C[C@H](Cc1ccc2c(c1)OC(C(=O)[O-])(C(=O)[O-])O2)NC[C@H](O)c1cccc(Cl)c1.[Na+].[Na+] [Compound 2] | increased clearly in a dose-dependent manner at 0.3 mg/kg or above | have neuroprotective effects | significant differences in comparison with Control group; also recorded: significant difference | significantly improved | comparable to that of carbamazepine | – | – | – |
| NC(=O)N1c2ccccc2C=Cc2ccccc21 [carbamazepine, reference compound] | – | – | – | – | – | analgesic effect | – | – |
| Cc1cc(-c2ccc(C(=O)O)c(C(C)C)c2)cc(C)c1OCCN[C@@H](C)[C@H](O)c1ccc(O)cc1 [Compound 3, 4′-[2-[(1S,2R)-2-hydroxy-2-(4-hydroxyphenyl)-1-methylethylamino]ethoxy]-3-isopropyl-3′,5′-dimethylbiphenyl-4-carboxylic acid] | – | – | – | – | comparable to that of carbamazepine | significantly improved | increased remarkably | – |
| C[C@H](Cc1ccc(OCC(=O)[O-])cc1)NC[C@H](O)c1cccc(Cl)c1.[Na+] [Compound 1] | increased clearly in a dose-dependent manner at 0.3 mg/kg or above | have neuroprotective effects | – | significantly improved | comparable to that of carbamazepine | – | – | significant differences in comparison with Control group; also recorded: significant difference |
